Assay results published in US4870175A, “6-substituted alkoxy-2-oxo-1,2-dihydroquinoxaline derivatives” (Toyo Jozo Kabushiki Kaisha, priority 1987, dated 1989).
Where two headings read alike, the source gives them in different places.

Experiments:
[1] = tested on: rabbit platelet-rich plasma; assay: Platelet aggregation inhibition (rabbit platelet-rich plasma, aggregometer); type: cell-based; conditions: Oryctolagus cuniculus, compound final concentration 10 μM, read-out: Inhibitory ratio
Procedure: (2) Platelet aggregation inhibition:
A rabbit platelet-rich plasma (5×10^5 /mm^3), to which was added 1/10 volume of a 3.8% sodium citrate solution, 216 μl, is incubated in an aggregometer at 37° C., 1000 rpm, for 3 mins. A test sample solution 12 μl (final concentration 10 μM) is added thereto and the mixture is further incubated for 3 mins., and collagen (aggregation agent) 2.5 μg/ml, ADP 2.5 μM, platelet activating factor (PAF) 0.05 μg/ml or 0.25 mM arachidonic acid (A.A.) 12 μl is added thereto as an aggregating agent, and the platelet aggregation activity is measured.

[2] = tested on: cyclic AMP/phosphodiesterase; assay: Inhibitory action of cyclic AMP/phosphodiesterase (crude enzyme fraction from sonicated rabbit platelets); type: biochemical; conditions: 40 min
Procedure: The pharmacological activity of the present compounds [1] is illustrated below. (1) Inhibitory action of cyclic AMP/phosphodiesterase:
A mixture of 2 mM MgCl2 /40 mM Tris-buffer (pH 7.5) 700 μl, enzyme solution (a crude enzyme fraction obtained from sonicated rabbit platelets) 100 μl, and a test sample solution (compound [1] dissolved in 50% aqueous methanol) 100 μl is incubated at 30° C. for 5 mins. 3', 5'-cyclic AMP 100 μl (50 μg) is added thereto and the mixture is further incubated for 40 mins. The reaction is stopped by heating 100° C. for 5 mins. The amount of 5'-AMP in the supernatant obtained by centrifugation at 3000 rpm for 5 mins. is measured using HPLC.
As shown in that table, the compound of the present invention has cyclic AMP/phosphodiesterase inhibitory activity at 1-10 μg/ml.

[3] = aggregating agent PAF 0.05 μg/ml
[4] = aggregating agent arachidonic acid (A.A.) 0.25 mM
[5] = aggregating agent collagen 2.5 μg/ml

| Compound | inhibition at 10 µM ([1]; aggregating agent ADP 2.5 μM) [%] | inhibition at 10 µM [1, 3] [%] | inhibition at 10 µM [1, 4] [%] | inhibition at 10 µM [1, 5] [%] | Inhibitory ratio ([2]; 1 μg/ml) [%] | Inhibitory ratio ([2]; 10 μg/ml) [%] | Inhibitory ratio ([2]; 100 μg/ml) [%] |
| --- | --- | --- | --- | --- | --- | --- | --- |
| CCc1nc2cc(OCCCC(=O)N(CCO)C3CCCCC3)ccc2[nH]c1=O [Compound 972] | 63.6 | 56.3 | 48.7 | 70.5 | 84.4 | 93.4 | – |
| O=C1CNc2cc(OCCCCc3nnnn3C3CCCCC3)ccc2N1 [Compound 931, 6-[4-(1-cyclohexyltetrazole-5-yl)-butoxy]-2-oxo-1,2,3,4-tetrahydroquinoxaline] | – | 44.3 | 34 | 65.2 | 25.3 | 74.3 | 86.4 |
| Cc1nc2cc(OCCCC(=O)N(CCO)C3CCCCC3)ccc2[nH]c1=O [Compound 966] | – | – | – | 83.5 | 54.5 | 86.6 | 93.7 |
| CN(C(=O)CCCOc1ccc2c(c1)NCC(=O)N2)C1CCCCC1 [Compound 929, 6-[3-(N-cyclohexyl-N-methyl-aminocarbonyl)propoxy]-2-oxo-1,2,3,4-tetrahydroquinoxaline] | 49.4 | 30.4 | 41.8 | 50.8 | 11.2 | 53.9 | 88.5 |
| CCOC(=O)CCCOc1ccc2c(c1)NCC(=O)N2 [Compound 925, 6-(3-ethoxycarbonylpropoxy)-2-oxo-1,2,3,4-tetrahydroquinoxaline] | 56.5 | 29.5 | 46.5 | 53.8 | 5.3 | 26.4 | 71.3 |
